From ChEMBL document CHEMBL4418493, “N-hydroxyformamide compounds and compositions comprising them for use as BMP1, TLL1 and/or TLL2 inhibitors” (2018) come the findings set out here.

What is called IC50 is the concentration that gives 50% inhibition. A high value points to weaker potency in that assay.

The nature of series [1]: Reduction in mature collagen deposition levels in human cardiac fibroblasts incubated for 24 to 48 hrs by immunostaining based assay. In kind it is functional.
Series [2] in a line: Reduction in PICP levels in human cardiac fibroblasts incubated for 24 to 48 hrs by ELISA. In kind it is functional. In general terms: ELISA stands for enzyme-linked immunosorbent assay.
Series [3] in a line: Drug metabolism in heparinized pooled human plasma at pH 7.5 assessed as conversion to active compound at 100 to 2000 ng/ml incubated for 4 by LC-MS/MS analysis. Type of series: ADME, cell-free.
The nature of series [4]: Drug metabolism in heparinized pooled human plasma at pH 7.5 assessed as formation of (S)-2-(2-ethoxy-4-(5-((((R)-2-((R)-1-(N-hydroxyformamido)propyl)heptanamido)methyl) carbamoyl)furan-2-yl)benzamido)succinic acid at 100 to 2000 ng/ml incubated up to 4 or 24 hrs by LC-MS/MS analysis. Conditions: pH 7.5, 24 h. In kind it is ADME, cell-free.
The nature of series [5]: Stability in pH 7.96 assessed as compound purity level at 1 mg/ml heated to 40 degC and measured at 200 hrs by LC/MS analsysis. Type of series: physicochemical. Conditions: buffer, read-out: Stability.
The nature of series [6]: Drug metabolism in heparinized pooled human plasma at pH 7.5 assessed as formation of (S)-2-(2-(carboxymethoxy)-4-(5-((((R)-2-((R)-1-(N-hydroxyformamido)propyl)heptanamido)methyl)carbamoyl)furan-2-yl)benzamido)succinic acid at 100 to 2000 ng/ml incubated up to 4 or 24 hrs by LC-MS/MS analysis. In kind it is ADME, cell-free. Particulars: pH 7.5, 24 h.
Series [7] in a line: Drug metabolism in heparinized pooled human plasma at pH 7.5 assessed as formation of (3-ethoxy-5-(5-((((R)-2-((R)-1-(N-hydroxyformamido)propyl)heptanamido)methyl)carbamoyl) furan-2-yl)phenyl)phosphonic acid at 100 to 2000 ng/ml incubated up to 4 or 24 hrs by LC-MS/MS analysis. Type of series: ADME, cell-free. Conditions: pH 7.5, 24 h.

`CCCCC[C@@H](C(=O)NCNC(=O)c1ccc(-c2ccc(C(=O)N[C@@H](CC(=O)O)C(=O)O)c(OCC)c2)o1)[C@@H](CC)N(C=O)OC(=O)C(C)(C)C`: the IC50 is less than 1 µM in series [1] and less than 3.98 µM in series [2]. In addition, the Drug metabolism is greater than 10% in series [3] and “Metabolite_Detected” in series [4]. The remaining at 200 h, 1 mg/ml in series [5] was less than 80%.
On to `CCCCC[C@@H](C(=O)NCNC(=O)c1ccc(-c2ccc(C(=O)N[C@@H](CC(=O)O)C(=O)O)c(OCC(=O)O)c2)o1)[C@@H](CC)N(C=O)OC(=O)c1ccc(OC)cc1C.N.N.N`, for which the IC50 in series [1] is less than 1 µM; in series [2] it was less than 3.98 µM. Also, the Drug metabolism result in series [6] is “Metabolite_Detected”.
For `CCCCC[C@@H](C(=O)NCNC(=O)c1ccc(-c2ccc(C(=O)N[C@@H](CC(=O)O)C(=O)O)c(OCC(=O)O)c2)o1)[C@@H](CC)N(C=O)OC(=O)c1ccccc1O`, the Drug metabolism result in series [6] is listed as “Metabolite_Detected”; in series [3] it was greater than 10%. Further, in series [5], the remaining at 200 h, 1 mg/ml is less than 80%.
In the case of `CCCCC[C@@H](C(=O)NCNC(=O)c1ccc(-c2cc(OCC)cc(P(=O)(O)O)c2)o1)[C@@H](CC)N(C=O)OCc1oc(=O)oc1C`, the IC50 in series [2] is less than 3.98 µM. The Drug metabolism result in series [7] is recorded as “Metabolite_Detected”; in series [3], greater than 10%. Further, in series [5], the remaining at 200 h, 1 mg/ml is less than 80%.
Molecule `CCCCC[C@@H](C(=O)NCNC(=O)c1ccc(-c2ccc(C(=O)N[C@@H](CC(=O)O)C(=O)O)c(OCC(=O)O)c2)o1)[C@@H](CC)N(C=O)OC(=O)OC(C)(C)C` had an IC50 in series [2] of less than 3.98 µM. Also, the Drug metabolism result is recorded as “Metabolite_Detected” in series [6] and greater than 10% in series [3]. The remaining at 200 h, 1 mg/ml in series [5] was less than 80%.
With `CCCCC[C@@H](C(=O)NCNC(=O)c1ccc(-c2cc(OCC)cc(P(=O)(O)O)c2)o1)[C@@H](CC)N(C=O)OC(=O)c1ccc2c(c1)OCCO2`, the IC50 in series [1] is less than 1 µM; in series [2], less than 3.98 µM. Further, the Drug metabolism entry in series [7] is “Metabolite_Detected”.
`CCCCC[C@@H](C(=O)NCNC(=O)c1ccc(-c2cc(OCC)cc(P(=O)(O)O)c2)o1)[C@@H](CC)N(C=O)OCOC(=O)C(C)(C)C`: the values for the Drug metabolism result in series [7] and in series [3] were “Metabolite_Detected” and greater than 10%, respectively. Moreover, in series [5], the remaining at 200 h, 1 mg/ml is less than 80%.
`CCCCC[C@@H](C(=O)NCNC(=O)c1ccc(-c2cc(OCC)cc(P(=O)(O)O)c2)o1)[C@@H](CC)N(C=O)OCOP(=O)(O)O`: the Drug metabolism entry in series [7] was “Metabolite_Detected”; in series [3], greater than 10%.
As to `CCCCC[C@@H](C(=O)NCNC(=O)c1ccc(-c2ccc(C(=O)N[C@@H](CC(=O)O)C(=O)O)c(OCC(=O)O)c2)o1)[C@@H](CC)N(C=O)OC(=O)c1ccccc1OC(C)=O`, the IC50 in series [2] was less than 3.98 µM. Besides, the Drug metabolism result in series [6] is “Metabolite_Detected”; in series [3], greater than 10%. Also, the remaining at 200 h, 1 mg/ml in series [5] is less than 80%.
Consider `CCCCC[C@@H](C(=O)NCNC(=O)c1ccc(-c2ccc(C(=O)N[C@@H](CC(=O)O)C(=O)O)c(OCC(=O)O)c2)o1)[C@@H](CC)N(C=O)OC(=O)c1ccccc1`, for which the Drug metabolism result in series [6] is given as “Metabolite_Detected”; in series [3] it was greater than 10%. Besides, the remaining at 200 h, 1 mg/ml in series [5] is less than 80%.
On to `CCCCC[C@@H](C(=O)NCNC(=O)c1ccc(-c2cc(OCC)cc(P(=O)(O)O)c2)o1)[C@@H](CC)N(C=O)OC(=O)c1ccc(OC)cc1`, for which the IC50 in series [1] is less than 1 µM; in series [2], less than 3.98 µM. Further, the Drug metabolism entry in series [7] is “Metabolite_Detected”.
The molecule `CCCCC[C@@H](C(=O)NCNC(=O)c1ccc(-c2ccc(C(=O)N[C@@H](CC(=O)O)C(=O)O)c(OCC(=O)O)c2)o1)[C@@H](CC)N(C=O)OC(=O)c1cccnc1` showed an IC50 in series [2] of less than 3.98 µM. Further, the Drug metabolism entry in series [6] is “Metabolite_Detected”; in series [3], greater than 10%. For the same molecule, the remaining at 200 h, 1 mg/ml in series [5] was less than 80%.
Turning to `CCCCC[C@@H](C(=O)NCNC(=O)c1ccc(-c2ccc(C(=O)N[C@@H](CC(=O)O)C(=O)O)c(OCC)c2)o1)[C@@H](CC)N(C=O)OC(=O)Cc1ccccc1`, the Drug metabolism was greater than 10% in series [3] and “Metabolite_Detected” in series [4]. Moreover, in series [5], the remaining at 200 h, 1 mg/ml was less than 80%.
In turn, `CCCCC[C@@H](C(=O)NCNC(=O)c1ccc(-c2ccc(C(=O)N[C@@H](CC(=O)O)C(=O)O)c(OCC)c2)o1)[C@@H](CC)N(C=O)OC(=O)c1ccccc1` gave an IC50 in series [2] of less than 3.98 µM. For the same molecule, the results for the Drug metabolism in series [3] and in series [4] were greater than 10% and “Metabolite_Detected”, respectively. In series [5], the remaining at 200 h, 1 mg/ml is less than 80%.
Consider `CCCCC[C@@H](C(=O)NCNC(=O)c1ccc(-c2cc(OCC)cc(P(=O)(O)O)c2)o1)[C@@H](CC)N(C=O)OC(=O)Cc1ccccc1`, for which the Drug metabolism entry in series [7] is “Metabolite_Detected”; in series [3], greater than 10%. For the same molecule, in series [5], the remaining at 200 h, 1 mg/ml is less than 80%.
`CCCCC[C@@H](C(=O)NCNC(=O)c1ccc(-c2ccc(C(=O)N[C@@H](CC(=O)O)C(=O)O)c(OCC(=O)O)c2)o1)[C@@H](CC)N(C=O)OCOP(=O)(O)O`: the Drug metabolism result in series [6] is reported as “Metabolite_Detected”; in series [3], greater than 10%.
Take `CCCCC[C@@H](C(=O)NCNC(=O)c1ccc(-c2cc(OCC)cc(P(=O)(O)O)c2)o1)[C@@H](CC)N(C=O)OC(=O)OC(C)(C)C`: the IC50 in series [1] was less than 1 µM; in series [2], less than 3.98 µM. Further, the Drug metabolism result in series [7] was “Metabolite_Detected”.
With `CCCCC[C@@H](C(=O)NCNC(=O)c1ccc(-c2ccc(C(=O)N[C@@H](CC(=O)O)C(=O)O)c(OCC(=O)O)c2)o1)[C@@H](CC)N(C=O)OC(=O)c1ccccc1C`, the Drug metabolism result in series [6] is reported as “Metabolite_Detected”; in series [3] it was greater than 10%. Besides, the remaining at 200 h, 1 mg/ml in series [5] is less than 80%.
Turning to `CCCCC[C@@H](C(=O)NCNC(=O)c1ccc(-c2cc(OCC)cc(P(=O)(O)O)c2)o1)[C@@H](CC)N(C=O)OC(=O)c1ccccc1`, the Drug metabolism result in series [7] is on record as “Metabolite_Detected”; in series [3] it was greater than 10%. For the same molecule, the remaining at 200 h, 1 mg/ml in series [5] is less than 80%.
